From patent publication US20230089247A1, “NOVEL COMPOUNDS SUITABLE FOR THE TREATMENT OF DYSLIPIDEMIA” (ZYDUS LIFESCIENCES LIMITED, priority 2019, published 2023)

Key:
[1] = tested on: High Fat Diet C57 Mice; assay: LDL-C lowering activity in high fat diet C57 mice; type: in vivo; settings: Mus musculus, po, 168 h; C57 mice on high fat diet; 30 mg/Kg orally once a day, 7 days treatment, blood on day 7; read-out: % Change Vs Vehicle Control in LDLc
Experimental: LDL-C Lowering Activity—in High Fat Diet C57 Mice
The in-vivo LDL-c lowering for test compound was tested in C57 mice which were kept on high fat diet for 4 weeks and the blood was collected by retro-orbital sinus puncture method under light ether anesthesia on day 0 (pretreatment). Animal are grouped based on LDL-c levels, after that 7 days treatment with vehicle or test compound orally at a dose of 30 mpk dose once a day was given. On completion of treatment on day 7 of the treatment the blood was collected for LDL-c and TC levels measurement.

[2] = molecular target: PCSK9 (Homo sapiens, UniProt Q8NBP7); assay: BODIPY-LDL uptake assay in HepG2 cells; type: cell-based; settings: 5 μg/ml PCSK9, BODIPY-LDL
Method in brief: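 Compounds pre-incubated 60 min with 5 μg/ml PCSK9 (0.2% DMSO), then added to HepG2 cells for 16 h; 1 μg/ml BODIPY-LDL added in serum-free medium for 5 h. Fluorescence (Ex 485/Em 520 nm) normalized to protein; PCSK9-only wells = 0%, no-PCSK9 wells = 100% uptake, giving percent increase in LDL uptake.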

Chain of PCSK9 (Q8NBP7 153-692): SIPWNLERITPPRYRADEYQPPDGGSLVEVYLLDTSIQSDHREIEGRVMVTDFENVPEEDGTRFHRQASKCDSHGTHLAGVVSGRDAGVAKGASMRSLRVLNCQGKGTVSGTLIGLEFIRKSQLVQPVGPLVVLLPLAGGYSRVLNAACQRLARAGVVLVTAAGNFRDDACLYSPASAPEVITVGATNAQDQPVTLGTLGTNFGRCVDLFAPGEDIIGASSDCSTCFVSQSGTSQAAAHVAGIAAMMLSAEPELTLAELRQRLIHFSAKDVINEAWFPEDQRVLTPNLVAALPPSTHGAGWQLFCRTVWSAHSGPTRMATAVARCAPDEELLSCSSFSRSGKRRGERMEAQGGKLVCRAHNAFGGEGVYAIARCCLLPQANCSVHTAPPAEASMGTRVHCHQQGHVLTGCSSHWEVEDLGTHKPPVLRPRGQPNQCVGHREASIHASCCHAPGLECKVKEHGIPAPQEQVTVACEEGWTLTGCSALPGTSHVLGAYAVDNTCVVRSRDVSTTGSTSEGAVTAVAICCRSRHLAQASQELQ

SMILES	change in vivo at 30 mg/kg [1] [%]	% increase in LDL Uptake ([2]; 1 μM test compound) [%]	% increase in LDL Uptake ([2]; 10 μM test compound) [%]	% increase in LDL Uptake ([2]; 30 μM test compound) [%]
O=C(c1ccc(C2(O)COC2)cc1)N1CCCC(c2ccc(C(F)(F)F)cc2)C1 (centres unmarked) [Example 34, (4-(3-hydroxyoxetan-3-yl)phenyl)(3-(4-(trifluoromethyl)phenyl)piperidin-1-yl)methanone]	-31 ± 8	27	86	252
COC1(c2ccc(C(=O)N3CCCC(c4ccc(C(F)(F)F)cc4)C3)cc2)COC1 (centres unmarked) [Example 39, (4-(3-methoxyoxetan-3-yl)phenyl)(3-(4-(trifluoromethyl)phenyl)piperidin-1-yl)methanone]	-29 ± 5	26	149	147
CCOC1(c2ccc(C(=O)N3CCC(c4ccc(C(F)(F)F)cc4)CC3)cc2)COC1 [Example 43, (4-(3-ethoxyoxetan-3-yl)phenyl)(4-(4-(trifluoromethyl)phenyl)piperidin-1-yl)methanone]	-27 ± 10	0	12	5
O=C(c1cccc(C2(O)COC2)c1)N1CCC(c2ccc(C(F)(F)F)cc2)CC1 [Example 47, (3-(3-hydroxyoxetan-3-yl)phenyl)(4-(4-(trifluoromethyl)phenyl)piperidin-1-yl)methanone]	-5 ± 7	17	189	383
COC1(c2ccc(C(=O)N3CCN(c4ccc(C(F)(F)F)cc4)CC3)cc2)COC1 [Example 53, (4-(3-methoxyoxetan-3-yl)phenyl)(4-(4-(trifluoromethyl)phenyl)piperazin-1-yl)methanone]	-15 ± 6	4	80	129
COC1(c2cccc(C(=O)N3CC4CN(c5ccc(C(F)(F)F)cc5)CC4C3)c2)COC1 (centres unmarked) [Example 56, (3-(3-methoxyoxetan-3-yl)phenyl)(5-(4-(trifluoromethyl)phenyl)hexahydropyrrolo[3,4-c]pyrrol-2(1H)-yl)methanone]	-5 ± 8	55	344	257
COC1(c2ccc(C(=O)N3CC4CN(c5ccc(C(F)(F)F)cc5)CC4C3)cc2)COC1 (centres unmarked) [Example 57, (4-(3-methoxyoxetan-3-yl)phenyl)(5-(4-(trifluoromethyl)phenyl)hexahydropyrrolo[3,4-c]pyrrol-2(1H)-yl)methanone]	-43 ± 9	6	32	53
CCOC1(c2ccc(C(=O)N3CC4CN(c5ccc(C(F)(F)F)cc5)CC4C3)cc2)COC1 (centres unmarked) [Example 58, (4-(3-ethoxyoxetan-3-yl)phenyl)(5-(4-(trifluoromethyl)phenyl)hexahydropyrrolo[3,4-c]pyrrol-2 (1H)-yl)methanone]	-44 ± 3	25	21	43
O=C(c1cccc(C2(O)COC2)c1)N1CCC(c2ccc(C(F)F)cc2)CC1 [Example 66, (4-(4-(difluoromethyl)phenyl)piperidin-1-yl)(3-(3-hydroxyoxetan-3-yl)phenyl)methanone]	-24 ± 7.1	0	24	159
[2H]C([2H])([2H])OC1(c2ccc(C(=O)N3CCC(c4ccc(C(F)(F)F)cc4)CC3)cc2)COC1 [Example 76, (4-(3-(methoxy-d3)oxetan-3-yl)phenyl)(4-(4-(trifluoromethyl)phenyl)piperidin-1-yl)methanone]	-28 ± 7	10	98	108
O=C(c1ccc(C2(O)COC2)cc1)N1CCC(O)(c2ccc(C(F)(F)F)cc2)CC1 [Example 86, (4-hydroxy-4-(4-(trifluoromethyl)phenyl)piperidin-1-yl)(4-(3-hydroxyoxetan-3-yl)phenyl)methanone]	-28 ± 4	2	33	55
O=C(c1ccc(C2(O)COC2)cc1)N1CC=C(c2ccc(C(F)(F)F)cc2)CC1 [Example 87, (4-(3-hydroxyoxetan-3-yl)phenyl)(4-(4-(trifluoromethyl)phenyl)-5,6-dihydropyridin-1(2H)-yl)methanone]	-36 ± 5	77	115	94
COC1(c2ccc(C(=O)N3Cc4cn(-c5ccc(C(F)(F)F)cc5)nc4C3)cc2)COC1 [Example 90, (4-(3-methoxyoxetan-3-yl)phenyl)(2-(4-(trifluoromethyl)phenyl)-2,6-dihydropyrrolo[3,4-c]pyrazol-5(4H)-yl)methanone]	-5.5 ± 4.5	3	39	74
O=C(c1ccc(C2(O)COC2)cc1)N1CC2=C(C1)CN(c1ccc(C(F)(F)F)cc1)C2 [Example 95, (4-(3-hydroxyoxetan-3-yl)phenyl)(5-(4-(trifluoromethyl)phenyl)-3,4,5,6-tetrahydropyrrolo[3,4-c]pyrrol-2(1H)-yl)methanone]	-16 ± 9	19	127	226
O=C(c1ccc(C2(O)COC2)cc1)N1CC2CC(O)(c3ccc(C(F)(F)F)cc3)CC2C1 (centres unmarked) [Example 105, (5-hydroxy-5-(4-(trifluoromethyl)phenyl)hexahydrocyclopenta[c]pyrrol-2(1H)-yl)(4-(3-hydroxyoxetan-3-yl)phenyl)methanone]	-7 ± 7	92	130	101
[2H]C([2H])([2H])OC1(c2ccc(C(=O)N3CC4CN(c5ccc(C(F)(F)F)cc5)CC4C3)cc2)COC1 (centres unmarked) [Example 134, (4-(3-(methoxy-d3)oxetan-3-yl)phenyl)(5-(4-(trifluoromethyl)phenyl)hexahydropyrrolo[3,4-c]pyrrol-2(1H)-yl)methanone]	-38 ± 7	3	28	43
O=C(c1ccc(C2(O)CCOCC2)cc1)N1CCC(c2ccc(C(F)(F)F)cc2)CC1 [Example 142, (4-(4-hydroxytetrahydro-2H-pyran-4-yl)phenyl)(4-(4-(trifluoromethyl)phenyl)piperidin-1-yl)methanone]	-26 ± 10	0	77	16
COC1(c2ccc(C(=O)N3CCC(c4ccc(C(F)(F)F)cc4)CC3)cc2)CCNCC1 [Example 144, (4-(4-methoxypiperidin-4-yl)phenyl)(4-(4-(trifluoromethyl)phenyl)piperidin-1-yl)methanone]	-66 ± 10	1	16	77
O=C(Nc1cccc(C2(O)COC2)c1)N1CC2CN(c3ccc(C(F)(F)F)cc3)CC2C1 (centres unmarked) [Example 182, N-(3-(3-hydroxyoxetan-3-yl)phenyl)-5-(4-(trifluoromethyl)phenyl) hexahydropyrrolo[3,4-c]pyrrole-2(1H)-carboxamide]	-5 ± 11	42	37	60
O=C(c1ccc(C2(O)COC2)cc1)N1CCCN(c2ccc(C(F)(F)F)cc2)CC1 [Example 184, (4-(3-hydroxyoxetan-3-yl)phenyl)(4-(4-(trifluoromethyl)phenyl)-1,4-diazepan-1-yl)methanone]	-7 ± 7	19	117	250
COC1(c2ccc(C(=O)N3CC4CN(c5ccc(C(F)(F)F)nc5)CC4C3)cc2)COC1 (centres unmarked) [Example 206, (4-(3-methoxyoxetan-3-yl)phenyl)(5-(6-(trifluoromethyl)pyridin-3-yl)hexahydropyrrolo[3,4-c]pyrrol-2(1H)-yl)methanone]	-18.6 ± 5.7	0	81	127
O=C(c1ccc(C2(O)COC2)cc1)N1CC2CN(c3ccc(C(F)(F)F)nc3)CC2C1 (centres unmarked) [Example 215, (4-(3-hydroxyoxetan-3-yl)phenyl)(5-(6-(trifluoromethyl)pyridin-3-yl)hexahydropyrrolo[3,4-c]pyrrol-2(1H)-yl)methanone]	-29 ± 5	0	90	140
O=C(c1ccc(C2(O)COC2)cc1)N1CCN(c2ccc(C(F)(F)F)cn2)CC1 [Example 216, (4-(3-hydroxyoxetan-3-yl)phenyl)(4-(5-(trifluoromethyl)pyridin-2-yl)piperazin-1-yl)methanone]	-40 ± 6	0	64	189
